# Numbers after ± are expanded uncertainties.
# What was measured:
# [1] = Ring tensiometer
# [2] = xn = mol fraction of the nth substance listed; settings: Ring tensiometer
compound,measurement,setting,value
CCCCn1cc[n+](C)c1.F[B-](F)(F)F [1-butyl-3-methylimidazolium tetrafluoroborate],surface tension liquid-gas,[1]; 298.15 K,44.6 ± 0.84 mN/m
same,surface tension liquid-gas,[1]; 308.15 K,43.65 ± 0.83 mN/m
same,surface tension liquid-gas,[1]; 318.15 K,42.95 ± 0.83 mN/m
same,surface tension liquid-gas,[1]; 328.15 K,42.25 ± 0.82 mN/m
same,surface tension liquid-gas,[1]; 338.15 K,41.55 ± 0.82 mN/m
CCCCn1cc[n+](C)c1.F[B-](F)(F)F [1-butyl-3-methylimidazolium tetrafluoroborate] + O,surface tension liquid-gas,"[2]; 298.15 K, x1 = 0.02",49.07 ± 1.5 mN/m
same,surface tension liquid-gas,"[2]; 298.15 K, x1 = 0.04",47.16 ± 0.84 mN/m
same,surface tension liquid-gas,"[2]; 298.15 K, x1 = 0.06",47.05 ± 0.83 mN/m
same,surface tension liquid-gas,"[2]; 298.15 K, x1 = 0.08",46.95 ± 0.83 mN/m
same,surface tension liquid-gas,"[2]; 298.15 K, x1 = 0.1",46.8 ± 0.83 mN/m
same,surface tension liquid-gas,"[2]; 298.15 K, x1 = 0.2",46.3 ± 0.83 mN/m
same,surface tension liquid-gas,"[2]; 298.15 K, x1 = 0.4",45.9 ± 0.83 mN/m
same,surface tension liquid-gas,"[2]; 298.15 K, x1 = 0.6",45.4 ± 0.83 mN/m
same,surface tension liquid-gas,"[2]; 298.15 K, x1 = 0.8",45 ± 0.83 mN/m
same,surface tension liquid-gas,"[2]; 298.15 K, x1 = 1",44.6 ± 0.84 mN/m
same,surface tension liquid-gas,"[2]; 308.15 K, x1 = 0.02",48.15 ± 1.5 mN/m
same,surface tension liquid-gas,"[2]; 308.15 K, x1 = 0.04",45.95 ± 0.83 mN/m
same,surface tension liquid-gas,"[2]; 308.15 K, x1 = 0.06",45.85 ± 0.82 mN/m
same,surface tension liquid-gas,"[2]; 308.15 K, x1 = 0.08",45.75 ± 0.82 mN/m
same,surface tension liquid-gas,"[2]; 308.15 K, x1 = 0.1",45.65 ± 0.82 mN/m
same,surface tension liquid-gas,"[2]; 308.15 K, x1 = 0.2",45.45 ± 0.82 mN/m
same,surface tension liquid-gas,"[2]; 308.15 K, x1 = 0.4",44.95 ± 0.82 mN/m
same,surface tension liquid-gas,"[2]; 308.15 K, x1 = 0.6",44.55 ± 0.82 mN/m
same,surface tension liquid-gas,"[2]; 308.15 K, x1 = 0.8",44.35 ± 0.83 mN/m
same,surface tension liquid-gas,"[2]; 308.15 K, x1 = 1",43.65 ± 0.83 mN/m
same,surface tension liquid-gas,"[2]; 318.15 K, x1 = 0.02",47.35 ± 1.4 mN/m
same,surface tension liquid-gas,"[2]; 318.15 K, x1 = 0.04",45.15 ± 0.82 mN/m
same,surface tension liquid-gas,"[2]; 318.15 K, x1 = 0.06",45.05 ± 0.81 mN/m
same,surface tension liquid-gas,"[2]; 318.15 K, x1 = 0.08",44.95 ± 0.81 mN/m
same,surface tension liquid-gas,"[2]; 318.15 K, x1 = 0.1",44.85 ± 0.81 mN/m
same,surface tension liquid-gas,"[2]; 318.15 K, x1 = 0.2",44.65 ± 0.81 mN/m
same,surface tension liquid-gas,"[2]; 318.15 K, x1 = 0.4",44.15 ± 0.81 mN/m
same,surface tension liquid-gas,"[2]; 318.15 K, x1 = 0.6",43.75 ± 0.82 mN/m
same,surface tension liquid-gas,"[2]; 318.15 K, x1 = 0.8",43.55 ± 0.82 mN/m
same,surface tension liquid-gas,"[2]; 318.15 K, x1 = 1",42.95 ± 0.83 mN/m
same,surface tension liquid-gas,"[2]; 328.15 K, x1 = 0.02",46.55 ± 1.4 mN/m
same,surface tension liquid-gas,"[2]; 328.15 K, x1 = 0.04",44.35 ± 0.82 mN/m
same,surface tension liquid-gas,"[2]; 328.15 K, x1 = 0.06",44.25 ± 0.81 mN/m
same,surface tension liquid-gas,"[2]; 328.15 K, x1 = 0.08",44.15 ± 0.81 mN/m
same,surface tension liquid-gas,"[2]; 328.15 K, x1 = 0.1",44.05 ± 0.81 mN/m
same,surface tension liquid-gas,"[2]; 328.15 K, x1 = 0.2",43.85 ± 0.81 mN/m
same,surface tension liquid-gas,"[2]; 328.15 K, x1 = 0.4",43.35 ± 0.81 mN/m
same,surface tension liquid-gas,"[2]; 328.15 K, x1 = 0.6",42.95 ± 0.81 mN/m
same,surface tension liquid-gas,"[2]; 328.15 K, x1 = 0.8",42.75 ± 0.82 mN/m
same,surface tension liquid-gas,"[2]; 328.15 K, x1 = 1",42.25 ± 0.82 mN/m
same,surface tension liquid-gas,"[2]; 338.15 K, x1 = 0.02",45.75 ± 1.4 mN/m
same,surface tension liquid-gas,"[2]; 338.15 K, x1 = 0.04",43.55 ± 0.81 mN/m
same,surface tension liquid-gas,"[2]; 338.15 K, x1 = 0.06",43.45 ± 0.8 mN/m
same,surface tension liquid-gas,"[2]; 338.15 K, x1 = 0.08",43.35 ± 0.8 mN/m
same,surface tension liquid-gas,"[2]; 338.15 K, x1 = 0.1",43.25 ± 0.8 mN/m
same,surface tension liquid-gas,"[2]; 338.15 K, x1 = 0.2",43.05 ± 0.8 mN/m
same,surface tension liquid-gas,"[2]; 338.15 K, x1 = 0.4",42.55 ± 0.8 mN/m
same,surface tension liquid-gas,"[2]; 338.15 K, x1 = 0.6",42.15 ± 0.81 mN/m
same,surface tension liquid-gas,"[2]; 338.15 K, x1 = 0.8",41.95 ± 0.81 mN/m
same,surface tension liquid-gas,"[2]; 338.15 K, x1 = 1",41.55 ± 0.82 mN/m
CCn1cc[n+](C)c1.F[B-](F)(F)F [1-ethyl-3-methylimidazolium tetrafluoroborate],surface tension liquid-gas,[1]; 298.15 K,52.05 ± 1 mN/m
same,surface tension liquid-gas,[1]; 308.15 K,51.65 ± 1 mN/m
same,surface tension liquid-gas,[1]; 318.15 K,51.25 ± 1 mN/m
same,surface tension liquid-gas,[1]; 328.15 K,50.85 ± 1 mN/m
same,surface tension liquid-gas,[1]; 338.15 K,50.45 ± 0.99 mN/m
CCn1cc[n+](C)c1.F[B-](F)(F)F [1-ethyl-3-methylimidazolium tetrafluoroborate] + O,surface tension liquid-gas,"[2]; 298.15 K, x1 = 0.02",60.27 ± 1.2 mN/m
same,surface tension liquid-gas,"[2]; 298.15 K, x1 = 0.04",57.47 ± 0.93 mN/m
same,surface tension liquid-gas,"[2]; 298.15 K, x1 = 0.06",56.49 ± 0.91 mN/m
same,surface tension liquid-gas,"[2]; 298.15 K, x1 = 0.08",55.52 ± 0.9 mN/m
same,surface tension liquid-gas,"[2]; 298.15 K, x1 = 0.1",54.98 ± 0.9 mN/m
same,surface tension liquid-gas,"[2]; 298.15 K, x1 = 0.2",53.92 ± 0.89 mN/m
same,surface tension liquid-gas,"[2]; 298.15 K, x1 = 0.4",53.61 ± 0.91 mN/m
same,surface tension liquid-gas,"[2]; 298.15 K, x1 = 0.6",53.23 ± 0.94 mN/m
same,surface tension liquid-gas,"[2]; 298.15 K, x1 = 0.8",52.73 ± 0.97 mN/m
same,surface tension liquid-gas,"[2]; 298.15 K, x1 = 1",52.05 ± 1 mN/m
same,surface tension liquid-gas,"[2]; 308.15 K, x1 = 0.02",59.07 ± 1.1 mN/m
same,surface tension liquid-gas,"[2]; 308.15 K, x1 = 0.04",56.47 ± 0.92 mN/m
same,surface tension liquid-gas,"[2]; 308.15 K, x1 = 0.06",55.69 ± 0.9 mN/m
same,surface tension liquid-gas,"[2]; 308.15 K, x1 = 0.08",54.82 ± 0.89 mN/m
same,surface tension liquid-gas,"[2]; 308.15 K, x1 = 0.1",54.38 ± 0.89 mN/m
same,surface tension liquid-gas,"[2]; 308.15 K, x1 = 0.2",53.52 ± 0.89 mN/m
same,surface tension liquid-gas,"[2]; 308.15 K, x1 = 0.4",53.21 ± 0.91 mN/m
same,surface tension liquid-gas,"[2]; 308.15 K, x1 = 0.6",52.83 ± 0.93 mN/m
same,surface tension liquid-gas,"[2]; 308.15 K, x1 = 0.8",52.33 ± 0.97 mN/m
same,surface tension liquid-gas,"[2]; 308.15 K, x1 = 1",51.65 ± 1 mN/m
same,surface tension liquid-gas,"[2]; 318.15 K, x1 = 0.02",57.87 ± 1.1 mN/m
same,surface tension liquid-gas,"[2]; 318.15 K, x1 = 0.04",55.47 ± 0.91 mN/m
same,surface tension liquid-gas,"[2]; 318.15 K, x1 = 0.06",54.89 ± 0.89 mN/m
same,surface tension liquid-gas,"[2]; 318.15 K, x1 = 0.08",54.12 ± 0.89 mN/m
same,surface tension liquid-gas,"[2]; 318.15 K, x1 = 0.1",53.78 ± 0.88 mN/m
same,surface tension liquid-gas,"[2]; 318.15 K, x1 = 0.2",53.12 ± 0.89 mN/m
same,surface tension liquid-gas,"[2]; 318.15 K, x1 = 0.4",52.81 ± 0.9 mN/m
same,surface tension liquid-gas,"[2]; 318.15 K, x1 = 0.6",52.43 ± 0.93 mN/m
same,surface tension liquid-gas,"[2]; 318.15 K, x1 = 0.8",51.93 ± 0.96 mN/m
same,surface tension liquid-gas,"[2]; 318.15 K, x1 = 1",51.25 ± 1 mN/m
same,surface tension liquid-gas,"[2]; 328.15 K, x1 = 0.02",56.67 ± 1.1 mN/m
same,surface tension liquid-gas,"[2]; 328.15 K, x1 = 0.04",54.47 ± 0.9 mN/m
same,surface tension liquid-gas,"[2]; 328.15 K, x1 = 0.06",54.09 ± 0.89 mN/m
same,surface tension liquid-gas,"[2]; 328.15 K, x1 = 0.08",53.42 ± 0.88 mN/m
same,surface tension liquid-gas,"[2]; 328.15 K, x1 = 0.1",53.18 ± 0.88 mN/m
same,surface tension liquid-gas,"[2]; 328.15 K, x1 = 0.2",52.72 ± 0.88 mN/m
same,surface tension liquid-gas,"[2]; 328.15 K, x1 = 0.4",52.41 ± 0.9 mN/m
same,surface tension liquid-gas,"[2]; 328.15 K, x1 = 0.6",52.03 ± 0.93 mN/m
same,surface tension liquid-gas,"[2]; 328.15 K, x1 = 0.8",51.53 ± 0.96 mN/m
same,surface tension liquid-gas,"[2]; 328.15 K, x1 = 1",50.85 ± 1 mN/m
same,surface tension liquid-gas,"[2]; 338.15 K, x1 = 0.02",55.47 ± 1.1 mN/m
same,surface tension liquid-gas,"[2]; 338.15 K, x1 = 0.04",53.47 ± 0.89 mN/m
same,surface tension liquid-gas,"[2]; 338.15 K, x1 = 0.06",53.29 ± 0.88 mN/m
same,surface tension liquid-gas,"[2]; 338.15 K, x1 = 0.08",52.72 ± 0.88 mN/m
same,surface tension liquid-gas,"[2]; 338.15 K, x1 = 0.1",52.58 ± 0.87 mN/m
same,surface tension liquid-gas,"[2]; 338.15 K, x1 = 0.2",52.32 ± 0.88 mN/m
same,surface tension liquid-gas,"[2]; 338.15 K, x1 = 0.4",52.01 ± 0.9 mN/m
same,surface tension liquid-gas,"[2]; 338.15 K, x1 = 0.6",51.63 ± 0.92 mN/m
same,surface tension liquid-gas,"[2]; 338.15 K, x1 = 0.8",51.13 ± 0.95 mN/m
same,surface tension liquid-gas,"[2]; 338.15 K, x1 = 1",50.45 ± 0.99 mN/m

# Reference: the NIST ThermoML archive (doi:10.1016/j.tca.2019.01.018)
